Measured values taken from patent US20250388565A1, “ESTROGEN RECEPTOR ALPHA DEGRADERS AND METHODS OF USE THEREOF” (Relay Therapeutics, Inc., priority 2022, published 2025).

The compounds below were run against T1, ERα protein (HiBiT-tagged) in ESR1_HiBiT KI MCF7 cells (Homo sapiens, UniProt P03372) (assay: Nano Glo HiBiT Lytic Degradation Assay). Conditions: 6 hours with compound, 14-point dose response 1:3, bell-shape curve fit, half-maximal effect of first Hill model, read-out: MCF7 ESR1 HiBiT - (DC50).
T1 sequence (P03372 1-595): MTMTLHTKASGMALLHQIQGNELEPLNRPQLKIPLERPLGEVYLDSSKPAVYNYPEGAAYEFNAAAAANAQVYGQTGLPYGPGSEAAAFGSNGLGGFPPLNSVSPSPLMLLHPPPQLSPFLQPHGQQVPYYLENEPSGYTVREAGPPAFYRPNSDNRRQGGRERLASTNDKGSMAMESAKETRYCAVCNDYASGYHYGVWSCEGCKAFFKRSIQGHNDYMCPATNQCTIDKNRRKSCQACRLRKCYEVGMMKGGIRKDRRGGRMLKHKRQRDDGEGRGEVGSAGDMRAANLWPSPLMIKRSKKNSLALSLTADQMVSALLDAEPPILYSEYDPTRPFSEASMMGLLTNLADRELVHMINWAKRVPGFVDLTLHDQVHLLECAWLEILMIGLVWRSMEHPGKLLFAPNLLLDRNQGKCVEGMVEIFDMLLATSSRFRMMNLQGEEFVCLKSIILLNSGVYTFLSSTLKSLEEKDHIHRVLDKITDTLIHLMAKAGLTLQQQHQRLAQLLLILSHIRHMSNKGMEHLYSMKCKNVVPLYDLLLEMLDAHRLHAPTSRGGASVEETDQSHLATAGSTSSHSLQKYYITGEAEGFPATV
Type: cell-based
Summary of the method: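 HiBiT-tagged endogenous ERα remaining in MCF7 knock-in cells was quantified by lytic luminescence after a 6 h treatment. DC50 values derive from a bell-shaped curve, taken at the first Hill component's half-maximal effect.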

| SMILES | DC50 [nM] |
| --- | --- |
| O=C1CC[C@H](N2Cc3cc(N4CCN(CC5CCN(c6c(F)cc([C@H]7c8ccc(O)cc8CC[C@H]7c7ccccc7)cc6F)CC5)CC4)ccc3C2=O)C(=O)N1 [II-83] | 424 |
| CC(C)c1ccccc1[C@H]1OCc2cc(O)ccc2[C@H]1c1ccc(N2CCC(CN3CCN(c4ccc5c(c4)CN([C@H]4CCC(=O)NC4=O)C5=O)CC3)CC2)cc1 [Compound I-351, (S)-3-(5-(4-((1-(4-((3S,4R)-7-hydroxy-3-(2-isopropylphenyl)isochroman-4-yl)phenyl)piperidin-4-yl)methyl)piperazin-1-yl)-1-oxoisoindolin-2-yl)piperidine-2,6-dione] | 0.2 |
| O=C1CC[C@H](N2Cc3cc(N4CCN(CC5CCN(c6ccc([C@@H]7c8ccc(O)cc8COC78CCCCC8)cc6)CC5)CC4)ccc3C2=O)C(=O)N1 [Compound I-123, (S)-3-(5-(4-((1-(4-((R)-7′-hydroxyspiro[cyclohexane-1,3′-isochroman]-4′-yl)phenyl)piperidin-4-yl)methyl)piperazin-1-yl)-1-oxoisoindolin-2-yl)piperidine-2,6-dione] | 0.31 |
| O=C1CC[C@H](N2Cc3cc(N4CCN(CC5CCN(c6ccc([C@@H]7c8ccc(O)cc8CO[C@@]78CCCc7ccccc78)cc6)CC5)CC4)ccc3C2=O)C(=O)N1 [Compound I-76, (S)-3-(5-(4-((1-(4-((3S,4R)-7-hydroxy-3′,4′-dihydro-2′H-spiro[isochromane-3,1′-naphthalen]-4-yl)phenyl)piperidin-4-yl)methyl)piperazin-1-yl)-1-oxoisoindolin-2-yl)piperidine-2,6-dione] | 0.21 |
| O=C1CC[C@H](N2Cc3cc(N4CCN(CC5CCN(c6ccc([C@@H]7c8ccc(O)cc8CCC78CCCCC8)cc6)CC5)CC4)ccc3C2=O)C(=O)N1 [Compound I-85, (S)-3-(5-(4-((1-(4-((R)-6′-hydroxy-3′,4′-dihydro-1′H-spiro[cyclohexane-1,2′-naphthalen]-1′-yl)phenyl)piperidin-4-yl)methyl)piperazin-1-yl)-1-oxoisoindolin-2-yl)piperidine-2,6-dione] | 0.64 |
| Cn1nc(C2CCC(=O)NC2=O)c2ccc(N3CCN(CC4CCN(c5ccc([C@@H]6c7ccc(O)cc7CC[C@@H]6c6ccccc6)cc5)CC4)CC3)cc21 (stereo partly drawn) [Compound I-188, 3-(6-(4-((1-(4-((1R,2S)-6-hydroxy-2-phenyl-1,2,3,4-tetrahydronaphthalen-1-yl)phenyl)piperidin-4-yl)methyl)piperazin-1-yl)-1-methyl-1H-indazol-3-yl)piperidine-2,6-dione] | 1.23 |
| O=C1CC[C@H](N2Cc3cc(N4CCN(CC5CCN(c6ccc([C@@H]7c8ccc(O)cc8CC[C@@]78CCCc7ccccc78)cc6)CC5)CC4)ccc3C2=O)C(=O)N1 [Compound I-264, (S)-3-(5-(4-((1-(4-((1S,1′S)-6′-hydroxy-3,3′,4,4′-tetrahydro-1′H,2H-1,2′-spirobi[naphthalen]′-yl)phenyl)piperidin-4-yl)methyl)piperazin-1-yl)-1-oxoisoindolin-2-yl)piperidine-2,6-dione] | 0.43 |
| C[C@H](C1CC1)[C@H]1CC(F)(F)c2cc(O)ccc2[C@H]1c1ccc(N2CCC(CN3CCN(c4ccc5c(c4)CN([C@H]4CCC(=O)NC4=O)C5=O)CC3)CC2)cc1 (single isomer, unassigned) [Compound I-228] | 15 |
| Cc1cc(F)ccc1[C@@H]1CC(F)(F)c2cc(O)ccc2[C@@H]1c1ccc(N2CCC(CN3CCN(c4ccc5c(c4)CN([C@H]4CCC(=O)NC4=O)C5=O)CC3)CC2)cc1 [Compound I-327, (S)-3-(5-(4-((1-(4-((1S,2R)-4,4-difluoro-2-(4-fluoro-2-methylphenyl)-6-hydroxy-1,2,3,4-tetrahydronaphthalen-1-yl)phenyl)piperidin-4-yl)methyl)piperazin-1-yl)-1-oxoisoindolin-2-yl)piperidine-2,6-dione] | ≥ 10000 |
| Cn1nc([C@H]2CCC(=O)NC2=O)c2ccc(N3CCN(CC4CCN(c5ccc([C@@H]6c7ccc(O)cc7CC[C@@H]6c6ccccc6)cc5)CC4)CC3)cc21 (single isomer, unassigned) [Compound I-295] | 0.84 |
| O=C1CCC(N2Cc3cc(N4CC5(CN(CC6CCN(c7ccc([C@@H]8c9ccc(O)cc9CC[C@@H]8c8ccccc8)cc7)CC6)C5)C4)ccc3C2=O)C(=O)N1 (single isomer, unassigned) [II-39] | ≥ 10000 |
| Cn1nc(C2CCC(=O)NC2=O)c2ccc(N3CCN(CC4CCN(c5ccc([C@@H]6c7ccc(O)cc7CO[C@@H]6c6ccccc6)cc5)CC4)CC3)cc21 (stereo partly drawn) [Compound I-393, 3-[6-[4-[[1-[4-[(3S,4R)-7-hydroxy-3-phenyl-isochroman-4-yl]phenyl]-4-piperidyl]methyl]piperazin-1-yl]-1-methyl-indazol-3-yl]piperidine-2,6-dione] | 0.36 |
| O=C1CC[C@H](N2Cc3cc(N4CCN(CC5CCN(c6ccc([C@H]7c8ccc(O)cc8CC[C@H]7CC7CCCC7)cc6)CC5)CC4)ccc3C2=O)C(=O)N1 [Compound I-120, (S)-3-(5-(4-((1-(4-((1S,2S)-2-(cyclopentylmethyl)-6-hydroxy-1,2,3,4-tetrahydronaphthalen-1-yl)phenyl)piperidin-4-yl)methyl)piperazin-1-yl)-1-oxoisoindolin-2-yl)piperidine-2,6-dione] | ≥ 10000 |
| O=C1CC[C@H](N2Cc3cc(N4CCN(CC5CCN(c6ccc([C@H]7c8ccc(O)cc8C(F)(F)C[C@H]7c7ccc(F)c(F)c7)cc6)CC5)CC4)ccc3C2=O)C(=O)N1 [Compound I-315, (S)-3-(5-(4-((1-(4-((1S,2R)-2-(3,4-difluorophenyl)-4,4-difluoro-6-hydroxy-1,2,3,4-tetrahydronaphthalen-1-yl)phenyl)piperidin-4-yl)methyl)piperazin-1-yl)-1-oxoisoindolin-2-yl)piperidine-2,6-dione] | ≥ 10000 |
| O=C1CCC(c2ccc3c(c2)C[C@@H](N2CCN(CC4CCN(c5ccc([C@@H]6c7ccc(O)cc7CC[C@@H]6c6ccccc6)cc5)CC4)CC2)CC3)C(=O)N1 (single isomer, unassigned) [Compound I-422] | 141 |
| O=C1CC[C@H](N2Cc3cc(N4CCN(CC5CCN(c6ccc([C@H]7c8ccc(O)cc8CCC78CCCCC8)cc6)CC5)CC4)ccc3C2=O)C(=O)N1 [Compound I-142] | ≥ 10000 |

The next lines start with the values.

| DC50 [nM] | SMILES |
| --- | --- |
| 0.33 | O=C1CCC(N2Cc3cc(N4CCN(CC5CCN(c6ccc([C@@H]7c8ccc(O)cc8CC[C@@H]7c7cccc8c7CC8)cc6)CC5)CC4)ccc3C2=O)C(=O)N1 (single isomer, unassigned) [Compound I-100] |
| 0.34 | Cc1ccccc1[C@@H]1CCc2cc(O)ccc2[C@@H]1c1ccc(N2CCC(CN3CCN(c4ccc5c(c4)CN([C@H]4CCC(=O)NC4=O)C5=O)CC3)CC2)cc1 (single isomer, unassigned) [II-35] |
| 0.13 | Cc1cc(F)cc(F)c1[C@H]1CCc2cc(O)ccc2[C@H]1c1ccc(N2CCC(CN3CCN(c4ccc5c(c4)CN([C@H]4CCC(=O)NC4=O)C5=O)CC3)CC2)cc1 [II-74] |
| 0.9 | O=C1CC[C@H](N2Cc3cc(N4CCN(C5CCN(c6ccc([C@@H]7c8ccc(O)cc8CC[C@@H]7c7ccccc7)cc6)CC5)CC4)ccc3C2=O)C(=O)N1 [II-31] |
| 46 | Cc1ccc([C@@H]2CCc3cc(O)ccc3[C@@H]2c2ccc(N3CCC(CN4CCN(c5ccc6c(c5)CN([C@H]5CCC(=O)NC5=O)C6=O)CC4)CC3)cc2)cc1 (single isomer, unassigned) [II-37] |
| ≥ 10000 | Cc1cc(F)c([C@@H]2CCc3cc(O)ccc3[C@@H]2c2ccc(N3CCC(CN4CCN(c5ccc6c(c5)CN([C@H]5CCC(=O)NC5=O)C6=O)CC4)CC3)cc2)cc1F [II-76] |
| 0.63 | O=C1CC[C@H](N2Cc3cc(N4CCN(CC5CCN(c6ccc([C@@H]7c8ccc(O)cc8CC[C@@H]7c7ccccn7)cc6)CC5)CC4)ccc3C2=O)C(=O)N1 [Compound I-115] |
| 28 | C[C@H]1Cc2cc(O)ccc2[C@H](c2ccc(N3CCC(CN4CCN(c5ccc6c(c5)CN([C@H]5CCC(=O)NC5=O)C6=O)CC4)CC3)cc2)[C@@H]1c1ccccc1 [Compound I-334, (S)-3-(5-(4-((1-(4-((1S,2R,3S)-6-hydroxy-3-methyl-2-phenyl-1,2,3,4-tetrahydronaphthalen-1-yl)phenyl)piperidin-4-yl)methyl)piperazin-1-yl)-1-oxoisoindolin-2-yl)piperidine-2,6-dione] |
| ≥ 10000 | O=C1CC[C@H](N2Cc3cc(N4CCN(CC5CCN(c6ccc([C@H]7c8ccc(O)cc8CC[C@H]7c7ccc(F)cc7)cc6)CC5)CC4)ccc3C2=O)C(=O)N1 [II-101] |
| ≥ 10000 | O=C1CC[C@H](N2Cc3cc(N4CCN(CC5CCN(c6ccc(C7c8ccc(O)cc8CCC7c7ccncc7)cc6)CC5)CC4)ccc3C2=O)C(=O)N1 (stereo in doubt) [Compound I-133, (S)-3-(5-(4-((1-(4-((1R,2S)-6-hydroxy-2-(pyridine-4-yl)-1,2,3,4-tetrahydronaphthalen-1-yl)phenyl)piperidin-4-yl)methyl)piperazin-1-yl)-1-oxoisoindolin-2-yl)piperidine-2,6-dione] |
